One may read the LogP as a log measure of how a compound divides between an organic and an aqueous phase. One may read the chromatographic logP as lipophilicity estimated from chromatographic retention. The low end stands for lower lipophilicity, the high end for higher lipophilicity.

Molecules are shown by their SMILES.

This note sets out measurements from patent US20190023658A1, “SUBSTITUTED 2-DIFLUOROMETHYL-NICOTIN(THIO)CARBOXANILIDE DERIVATIVES AND THEIR USE AS FUNGICIDES” (Bayer CropScience Aktiengesellschaft, priority 2015, published 2019).

The first data set is described as follows: Log P by HPLC on reversed phase columns (EEC directive 79/831 Annex V.A8). Particulars: [a] LC-UV, acidic range, 0.1% formic acid in water and acetonitrile as eluent. Type of data set: physicochemical. The method, then: Measurement of Log P values was performed according to EEC directive 79/831 Annex V.A8 by HPLC (High Performance Liquid Chromatography) on reversed phase columns with the following methods: [a] Log P value is determined by measurement of LC-UV, in an acidic range, with 0.1% formic acid in water and acetonitrile as eluent (linear gradient from 10% acetonitrile to 95% acetonitrile). [b] Log P value is determined by measurement of LC-UV, in a neutral range, with 0.001 molar ammonium acetate solution in water and acetonitrile as eluent (linear gradient from 10% acetonitrile to 95% acetonitrile). Calibration was done with straight-chain alkan2-ones (with 3 to 16 carbon atoms) with known Log P values (measurement of Log P values using retention times with linear interpolation between successive alkanones). Lambda-max-values were determined using UV-spectra from 200 nm to 400 nm and the peak values of the chromatographic signals.
As to `Cc1ccccc1Oc1ccccc1NC(=O)c1cccnc1C(F)F` [Example I-02], the lipophilicity (LogP) is 3.27^[a].
Same read-out and setting: as for `O=C(Nc1ccccc1Oc1ccc(Cl)cc1)c1cccnc1C(F)F` [Example I-03], the figure is 3.33^[a]; as for `O=C(Nc1ccccc1Oc1cc(F)cc(C(F)(F)F)c1)c1cccnc1C(F)F` [Example I-04], 3.57^[a]; as for `COc1cccc(Oc2ccccc2NC(=O)c2cccnc2C(F)F)c1` [Example I-05], 2.92^[a].
Regarding `O=C(Nc1ccccc1Oc1ccc(C(F)(F)F)cc1)c1cccnc1C(F)F` [Example I-07], the LogP is 3.46^[a].
The same measure, in the same setting: as for `O=C(Nc1ccccc1Oc1cccc(F)c1F)c1cccnc1C(F)F` [Example I-08], the figure is 2.98^[a].
As to `O=C(Nc1cccc(Cl)c1Sc1ccccc1)c1cccnc1C(F)F` [Example I-09], the LogP was 3.59^[a].
Turning to `O=C(Nc1cccc(Cl)c1Oc1ccc(Cl)cc1)c1cccnc1C(F)F` [Example I-10], the LogP was 3.59^[a].
Same read-out and setting: as for `O=C(Nc1ccccc1Sc1ccccc1)c1cccnc1C(F)F` [Example I-11], the figure is 3.21^[a]; as for `O=C(Nc1ccccc1Oc1cc(F)cc(F)c1)c1cccnc1C(F)F` [Example I-12], 3.11^[a]; as for `COc1ccc(Oc2ccccc2NC(=O)c2cccnc2C(F)F)cc1` [Example I-13], 2.90^[a].
Same read-out and setting: then `O=C(Nc1ccccc1Sc1ccc(Cl)cc1)c1cccnc1C(F)F` [Example I-14], with 3.57^[a]; and `O=C(Nc1ccccc1Oc1ccccc1F)c1cccnc1C(F)F` [Example I-15], with 2.88^[a]; and `O=C(Nc1ccccc1Oc1ccc(F)c(F)c1)c1cccnc1C(F)F` [Example I-16], with 3.09^[a].
Same read-out and setting: as for `O=C(Nc1ccccc1Oc1ccc(Cl)cc1Cl)c1cccnc1C(F)F` [Example I-17], the figure is 3.65^[a]; as for `O=C(Nc1ccccc1Oc1cccc(C(F)(F)F)c1)c1cccnc1C(F)F` [Example I-18], 3.44^[a].
For `Cc1cccc(Oc2ccccc2NC(=O)c2cccnc2C(F)F)c1` [Example I-19], the LogP was 3.23^[a].
On the same count and under the same terms, as for `O=C(Nc1ccccc1Oc1ccccc1)c1cccnc1C(F)F` [Example I-20], the figure is 2.90^[a]; as for `COc1ccccc1Oc1ccccc1NC(=O)c1cccnc1C(F)F` [Example I-21], 2.88^[a].
Turning to `O=C(Nc1cccc(Cl)c1Oc1ccccc1)c1cccnc1C(F)F` [Example I-22], the lipophilicity (LogP) was 3.15^[a].
Consider `O=C(Nc1ccccc1S(=O)(=O)c1ccccc1)c1cccnc1C(F)F` [Example I-23], for which the LogP is 2.56^[a].
Same read-out and setting: as for `O=C(Nc1cc(C(F)(F)F)ccc1Oc1ccccc1)c1cccnc1C(F)F` [Example I-24], the figure is 3.63^[a].
For the molecule `O=C(Nc1ccccc1Oc1cc(Cl)cc(Cl)c1)c1cccnc1C(F)F` [Example I-25], the LogP was 3.81^[a].
Still for that read-out and setting: then `O=C(Nc1ccccc1Oc1ccccc1Cl)c1cccnc1C(F)F` [Example I-26], with 3.11^[a]; and `O=C(Nc1ccccc1Oc1cccc(F)c1)c1cccnc1C(F)F` [Example I-27], with 2.96^[a]; and `O=C(Nc1ccccc1Oc1ccc(F)cc1)c1cccnc1C(F)F` [Example I-28], with 2.96^[a].
Consider `N#Cc1ccc(Oc2ccccc2NC(=O)c2cccnc2C(F)F)cc1` [Example I-29], for which the LogP was 2.51^[a].
Consider `O=C(Nc1ccccc1Oc1ccc(Br)cc1)c1cccnc1C(F)F` [Example I-30], for which the LogP was 3.39^[a].
Still for that read-out and setting: then `CON=Cc1ccc(-c2ccccc2NC(=O)c2cccnc2C(F)F)cc1` [Example I-32], with 2.86^[a]; and `CON=Cc1c(F)cc(-c2cccc(F)c2NC(=O)c2cccnc2C(F)F)cc1F` [Example I-33], with 2.97^[a]; and `O=C(Nc1ccccc1-c1ccc(F)cc1)c1cccnc1C(F)F` [Example I-34], with 2.66^[a].
For the molecule `O=C(Nc1ccccc1-c1ccc(Cl)c(F)c1)c1cccnc1C(F)F` [Example I-35], the LogP was 3.06^[a].
Same read-out and setting: as for `N#Cc1c(F)cc(-c2ccccc2NC(=O)c2cccnc2C(F)F)cc1F` [Example I-36], the figure is 2.71^[a].
On the same count and under the same terms, then `O=C(Nc1ccc(F)cc1-c1ccc(Cl)c(Cl)c1)c1cccnc1C(F)F` [Example I-37], with 3.44^[a]; and `O=C(Nc1ccccc1-c1cc(F)cc(F)c1)c1cccnc1C(F)F` [Example I-38], with 2.80^[a].
For `O=C(Nc1ccccc1-c1cccc(C(F)(F)F)c1)c1cccnc1C(F)F` [Example I-39], the LogP was 3.15^[a].
Turning to `O=C(Nc1ccccc1-c1ccc(Cl)cc1)c1cccnc1C(F)F` [Example I-40], the lipophilicity (LogP) was 2.92^[a].
Turning to `CCON=Cc1ccc(-c2ccccc2NC(=O)c2cccnc2C(F)F)cc1` [Example I-41], the LogP is 3.23^[a].
On to `O=C(Nc1ccccc1-c1ccc(F)c(F)c1)c1cccnc1C(F)F` [Example I-42], for which the LogP is 2.78^[a].
For the molecule `O=C(Nc1ccccc1-c1ccc(C(F)(F)F)c(F)c1)c1cccnc1C(F)F` [Example I-43], the LogP is 3.25^[a].
`O=C(Nc1ccccc1-c1ccccc1C(F)(F)F)c1cccnc1C(F)F` [Example I-44] displayed a LogP of 2.99.
Consider `O=C(Nc1ccccc1-c1ccc(F)cc1F)c1cccnc1C(F)F` [Example I-45], for which the LogP was 2.66^[a].
The same measure, in the same setting: as for `O=C(Nc1ccc(F)cc1-c1ccc(F)cc1)c1cccnc1C(F)F` [Example I-47], the figure is 2.73^[a]; as for `O=C(Nc1ccccc1-c1cc(F)c(F)c(F)c1)c1cccnc1C(F)F` [Example I-48], 2.92^[a].
Still for that read-out and setting: as for `CON=Cc1c(F)cc(-c2ccccc2NC(=O)c2cccnc2C(F)F)cc1F` [Example I-49], the figure is 3.17^[a]; as for `CCON=Cc1c(F)cc(-c2ccccc2NC(=O)c2cccnc2C(F)F)cc1F` [Example I-50], 3.46^[a]; as for `O=C(Nc1ccccc1-c1ccccc1Cl)c1cccnc1C(F)F` [Example I-51], 2.74.
`O=C(Nc1ccccc1-c1cccc(Cl)c1)c1cccnc1C(F)F` [Example I-52]: the LogP was 2.96^[a].
Still for that read-out and setting: then `O=C(Nc1ccccc1-c1cc(Cl)cc(Cl)c1)c1cccnc1C(F)F` [Example I-53], with 3.48^[a]; and `O=C(Nc1ccccc1-c1ccc(Cl)c(Cl)c1)c1cccnc1C(F)F` [Example I-54], with 3.35^[a].
On to `COC(=N)c1c(F)cc(-c2cc(F)ccc2NC(=O)c2cccnc2C(F)F)cc1F` [Example I-55], for which the LogP is 3.16^[a].
For `CSc1ccc(-c2ccccc2NC(=O)c2cccnc2C(F)F)cc1` [Example I-56], the LogP is 2.94^[a].
On the same count and under the same terms, as for `CCOc1c(F)cc(-c2ccccc2NC(=O)c2cccnc2C(F)F)cc1F` [Example I-57], the figure is 3.29^[a]; as for `CCCOc1c(F)cc(-c2ccccc2NC(=O)c2cccnc2C(F)F)cc1F` [Example I-58], 3.61^[a].

The data set is the same for the next values; noted with them: [b] LC-UV, neutral range, 0.001 molar ammonium acetate solution in water and acetonitrile as eluent.
In the case of `O=C(Nc1ccccc1-c1ccccc1C(F)(F)F)c1cccnc1C(F)F` [Example I-44], the LogP came out at 2.93.
Same read-out and setting: then `O=C(Nc1ccccc1-c1ccccc1Cl)c1cccnc1C(F)F` [Example I-51], with 2.68.

Still in this data set, the particulars now being: reversed phase HPLC column; [a] LC-UV, acidic range, 0.1% formic acid in water and acetonitrile as eluent.
`Cc1ccc(Oc2ccccc2NC(=O)c2cccnc2C(F)F)cc1` [Example I-01, 2-(difluoromethyl)-N-[2-(4-methylphenoxy)phenyl]nicotinamide] yielded a chromatographic logP of 3.27.
